Data published in patent US20230391768A2, “IMIDAZOPYRIDINE DERIVATIVES AND AZA-IMIDAZOPYRIDINE DERIVATIVES AS JANUS KINASE 2 INHIBITORS AND USES THEREOF” (Dana-Farber Cancer Institute, Inc., priority 2018, published 2023).

Tests used:
Experiment in all cases: KINOMEscan
Format in all cases: binding
TLK1 = TLK1 (Homo sapiens (Human), UniProt Q9UKI8); settings: read-out: percent of control
Procedure: (§1) In vitro profiling of Compound I-2 (1 μM) was performed using the DiscoveRx KINOMEscan® platform.

PHKG2 = PHKG2 (Homo sapiens (Human), UniProt P15735); settings: read-out: percent of control
Procedure: as §1

HUNK = HUNK (Homo sapiens (Human), UniProt P57058); settings: read-out: percent of control
Procedure: as §1

[1] = molecular target: ABL1(Y253F)-phosphorylated (Homo sapiens (Human), UniProt P00519, Y253F); settings: read-out: percent of control
Procedure: as §1

FLT3 (D835Y) = FLT3 (D835Y) (Homo sapiens (Human), UniProt P36888, D835Y); settings: read-out: percent of control
Procedure: as §1

CDK8 = CDK8 (Homo sapiens (Human), UniProt P49336); settings: read-out: percent of control
Procedure: as §1

NEK10 = NEK10 (Homo sapiens (Human), UniProt Q6ZWH5); settings: read-out: percent of control
Procedure: as §1

PIP5K1A = PIP5K1A (Homo sapiens (Human), UniProt Q99755); settings: read-out: percent of control
Procedure: as §1

SRC = SRC (Homo sapiens (Human), UniProt P12931); settings: read-out: percent of control
Procedure: as §1

CHEK2 = CHEK2 (Homo sapiens (Human), UniProt O96017); settings: read-out: percent of control
Procedure: as §1

ACVRL1 = ACVRL1 (Homo sapiens (Human), UniProt P37023); settings: read-out: percent of control
Procedure: as §1

MAP3K15 = MAP3K15 (Homo sapiens (Human), UniProt Q6ZN16); settings: read-out: percent of control
Procedure: as §1

[2] = molecular target: TYK2(JH1domain-catalytic) (Homo sapiens (Human), UniProt P29597); settings: read-out: percent of control
Procedure: as §1

TGFBR1 = TGFBR1 (Homo sapiens (Human), UniProt P36897); settings: read-out: percent of control
Procedure: as §1

ZAK = ZAK (Homo sapiens (Human), UniProt Q9NYL2); settings: read-out: percent of control
Procedure: as §1

[3] = molecular target: ABL1(H396P)-phosphorylated (Homo sapiens (Human), UniProt P00519, H396P); settings: read-out: percent of control
Procedure: as §1

KIT-autoinhibited = KIT-autoinhibited (Homo sapiens (Human), UniProt P10721); settings: read-out: percent of control
Procedure: as §1

JNK3 = JNK3 (Homo sapiens (Human), UniProt P53779); settings: read-out: percent of control
Procedure: as §1

TESK1 = TESK1 (Homo sapiens (Human), UniProt Q15569); settings: read-out: percent of control
Procedure: as §1

WEE1 = WEE1 (Homo sapiens (Human), UniProt P30291); settings: read-out: percent of control
Procedure: as §1

ROCK2 = ROCK2 (Homo sapiens (Human), UniProt O75116); settings: read-out: percent of control
Procedure: as §1

STK36 = STK36 (Homo sapiens (Human), UniProt Q9NRP7); settings: read-out: percent of control
Procedure: as §1

SRPK1 = SRPK1 (Homo sapiens (Human), UniProt Q96SB4); settings: read-out: percent of control
Procedure: as §1

LOK = LOK (Homo sapiens (Human), UniProt O94804); settings: read-out: percent of control
Procedure: as §1

PIM2 = PIM2 (Homo sapiens (Human), UniProt Q9P1W9); settings: read-out: percent of control
Procedure: as §1

GAK = GAK (Homo sapiens (Human), UniProt O14976); settings: read-out: percent of control
Procedure: as §1

KIT(V559D,V654A) = KIT(V559D,V654A) (Homo sapiens (Human), UniProt P10721, V559D/V654A); settings: read-out: percent of control
Procedure: as §1

MUSK = MUSK (Homo sapiens (Human), UniProt O15146); settings: read-out: percent of control
Procedure: as §1

INSRR = INSRR (Homo sapiens (Human), UniProt P14616); settings: read-out: percent of control
Procedure: as §1

MARK1 = MARK1 (Homo sapiens (Human), UniProt Q9P0L2); settings: read-out: percent of control
Procedure: as §1

DCAMKL3 = DCAMKL3 (Homo sapiens (Human), UniProt Q9C098); settings: read-out: percent of control
Procedure: as §1

MAP3K4 = MAP3K4 (Homo sapiens (Human), UniProt Q9Y6R4); settings: read-out: percent of control
Procedure: as §1

PIK3CA(M1043I) = PIK3CA(M1043I) (Homo sapiens (Human), UniProt P42336, M1043I); settings: read-out: percent of control
Procedure: as §1

NLK = NLK (Homo sapiens (Human), UniProt Q9UBE8); settings: read-out: percent of control
Procedure: as §1

TYR = TYR (Homo sapiens (Human), UniProt Q06418); settings: read-out: percent of control
Procedure: as §1

BIKE = BIKE (Homo sapiens (Human), UniProt Q9NSY1); settings: read-out: percent of control
Procedure: as §1

WNK3 = WNK3 (Homo sapiens (Human), UniProt Q9BYP7); settings: read-out: percent of control
Procedure: as §1

FLT3 (ITD) = settings: 1 μM
Procedure: as §1

VPS34 = VPS34 (Homo sapiens (Human), UniProt Q8NEB9); settings: read-out: percent of control
Procedure: as §1

Chain of SRPK1 (Q96SB4 whole entry): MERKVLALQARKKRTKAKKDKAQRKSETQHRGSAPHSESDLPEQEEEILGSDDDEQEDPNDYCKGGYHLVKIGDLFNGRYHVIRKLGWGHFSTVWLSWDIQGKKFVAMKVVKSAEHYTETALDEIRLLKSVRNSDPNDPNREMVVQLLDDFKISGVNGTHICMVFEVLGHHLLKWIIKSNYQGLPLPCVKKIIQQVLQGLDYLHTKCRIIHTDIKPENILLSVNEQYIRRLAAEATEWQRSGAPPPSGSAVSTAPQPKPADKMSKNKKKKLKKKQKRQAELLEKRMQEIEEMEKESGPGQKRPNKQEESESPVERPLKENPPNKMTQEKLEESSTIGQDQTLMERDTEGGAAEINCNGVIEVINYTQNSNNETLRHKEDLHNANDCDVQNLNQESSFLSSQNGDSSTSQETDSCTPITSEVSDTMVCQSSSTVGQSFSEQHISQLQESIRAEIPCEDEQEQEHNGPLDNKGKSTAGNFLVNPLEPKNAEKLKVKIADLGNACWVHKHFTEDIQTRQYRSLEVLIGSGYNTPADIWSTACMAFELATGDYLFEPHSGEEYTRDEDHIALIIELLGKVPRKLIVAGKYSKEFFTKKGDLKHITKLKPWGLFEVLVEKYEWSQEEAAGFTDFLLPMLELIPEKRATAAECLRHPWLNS
Chain of VPS34 (Q8NEB9 whole entry): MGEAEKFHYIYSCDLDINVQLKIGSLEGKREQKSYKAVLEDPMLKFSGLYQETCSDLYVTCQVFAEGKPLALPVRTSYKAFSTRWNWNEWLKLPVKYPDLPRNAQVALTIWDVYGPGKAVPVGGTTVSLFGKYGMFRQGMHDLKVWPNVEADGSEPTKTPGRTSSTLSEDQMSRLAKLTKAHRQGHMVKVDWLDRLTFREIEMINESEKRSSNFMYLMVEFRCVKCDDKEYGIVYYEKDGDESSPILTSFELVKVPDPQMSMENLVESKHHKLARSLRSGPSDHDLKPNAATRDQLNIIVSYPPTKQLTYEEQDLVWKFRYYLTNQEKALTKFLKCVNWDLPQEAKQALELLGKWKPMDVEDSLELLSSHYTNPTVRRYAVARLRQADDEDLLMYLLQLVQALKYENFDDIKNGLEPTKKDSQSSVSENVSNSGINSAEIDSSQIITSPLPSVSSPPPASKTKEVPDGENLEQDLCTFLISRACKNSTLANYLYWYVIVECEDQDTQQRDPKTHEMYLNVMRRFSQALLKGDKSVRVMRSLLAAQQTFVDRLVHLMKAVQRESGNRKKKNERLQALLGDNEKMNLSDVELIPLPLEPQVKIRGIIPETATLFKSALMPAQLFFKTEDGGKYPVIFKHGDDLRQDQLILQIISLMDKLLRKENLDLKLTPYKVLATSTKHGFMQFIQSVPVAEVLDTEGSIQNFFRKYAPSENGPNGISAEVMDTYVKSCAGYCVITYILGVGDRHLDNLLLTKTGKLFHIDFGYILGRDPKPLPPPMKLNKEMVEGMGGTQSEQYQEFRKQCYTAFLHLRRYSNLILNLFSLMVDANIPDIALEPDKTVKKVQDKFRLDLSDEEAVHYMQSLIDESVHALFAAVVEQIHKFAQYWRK
Chain of TYK2(JH1domain-catalytic) (P29597 897-1176): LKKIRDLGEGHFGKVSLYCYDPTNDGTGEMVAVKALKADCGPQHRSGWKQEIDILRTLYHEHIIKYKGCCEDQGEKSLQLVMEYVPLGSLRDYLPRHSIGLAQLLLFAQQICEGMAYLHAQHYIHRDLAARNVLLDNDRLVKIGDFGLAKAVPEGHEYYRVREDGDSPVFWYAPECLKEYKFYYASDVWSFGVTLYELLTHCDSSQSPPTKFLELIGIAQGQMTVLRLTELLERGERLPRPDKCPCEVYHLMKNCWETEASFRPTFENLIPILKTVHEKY
Chain of BIKE (Q9NSY1 whole entry): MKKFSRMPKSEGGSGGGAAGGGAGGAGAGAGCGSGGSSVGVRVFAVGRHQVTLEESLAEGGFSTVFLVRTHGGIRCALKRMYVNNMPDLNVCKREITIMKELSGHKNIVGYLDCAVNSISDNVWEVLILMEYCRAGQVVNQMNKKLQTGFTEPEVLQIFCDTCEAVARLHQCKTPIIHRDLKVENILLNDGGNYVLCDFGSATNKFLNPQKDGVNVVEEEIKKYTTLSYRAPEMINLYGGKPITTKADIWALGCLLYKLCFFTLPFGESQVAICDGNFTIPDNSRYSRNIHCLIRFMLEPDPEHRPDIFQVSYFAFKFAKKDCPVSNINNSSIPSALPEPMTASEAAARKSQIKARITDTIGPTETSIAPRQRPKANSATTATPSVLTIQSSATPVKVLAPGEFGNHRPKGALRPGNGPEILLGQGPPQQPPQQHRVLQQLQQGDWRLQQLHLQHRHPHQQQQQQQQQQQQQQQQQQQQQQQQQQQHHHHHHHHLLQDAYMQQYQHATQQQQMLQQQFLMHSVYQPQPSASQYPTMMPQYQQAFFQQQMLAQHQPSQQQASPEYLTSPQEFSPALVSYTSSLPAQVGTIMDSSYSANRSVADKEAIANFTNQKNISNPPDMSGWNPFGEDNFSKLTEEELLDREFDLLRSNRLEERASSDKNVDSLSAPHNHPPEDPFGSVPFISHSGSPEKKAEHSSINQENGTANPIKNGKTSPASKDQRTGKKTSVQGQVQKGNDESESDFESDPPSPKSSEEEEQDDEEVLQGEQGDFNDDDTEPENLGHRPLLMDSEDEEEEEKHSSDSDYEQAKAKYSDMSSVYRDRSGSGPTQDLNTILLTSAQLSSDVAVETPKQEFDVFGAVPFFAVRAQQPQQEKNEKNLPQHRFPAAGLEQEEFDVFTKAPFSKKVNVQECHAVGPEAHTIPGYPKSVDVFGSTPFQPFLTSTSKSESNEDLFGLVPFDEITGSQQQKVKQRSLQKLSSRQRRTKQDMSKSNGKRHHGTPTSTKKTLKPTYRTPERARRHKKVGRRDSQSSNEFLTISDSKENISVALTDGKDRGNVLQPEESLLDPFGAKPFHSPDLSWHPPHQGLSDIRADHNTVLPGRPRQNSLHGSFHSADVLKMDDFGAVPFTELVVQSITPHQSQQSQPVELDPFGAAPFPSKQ
Chain of GAK (O14976 whole entry): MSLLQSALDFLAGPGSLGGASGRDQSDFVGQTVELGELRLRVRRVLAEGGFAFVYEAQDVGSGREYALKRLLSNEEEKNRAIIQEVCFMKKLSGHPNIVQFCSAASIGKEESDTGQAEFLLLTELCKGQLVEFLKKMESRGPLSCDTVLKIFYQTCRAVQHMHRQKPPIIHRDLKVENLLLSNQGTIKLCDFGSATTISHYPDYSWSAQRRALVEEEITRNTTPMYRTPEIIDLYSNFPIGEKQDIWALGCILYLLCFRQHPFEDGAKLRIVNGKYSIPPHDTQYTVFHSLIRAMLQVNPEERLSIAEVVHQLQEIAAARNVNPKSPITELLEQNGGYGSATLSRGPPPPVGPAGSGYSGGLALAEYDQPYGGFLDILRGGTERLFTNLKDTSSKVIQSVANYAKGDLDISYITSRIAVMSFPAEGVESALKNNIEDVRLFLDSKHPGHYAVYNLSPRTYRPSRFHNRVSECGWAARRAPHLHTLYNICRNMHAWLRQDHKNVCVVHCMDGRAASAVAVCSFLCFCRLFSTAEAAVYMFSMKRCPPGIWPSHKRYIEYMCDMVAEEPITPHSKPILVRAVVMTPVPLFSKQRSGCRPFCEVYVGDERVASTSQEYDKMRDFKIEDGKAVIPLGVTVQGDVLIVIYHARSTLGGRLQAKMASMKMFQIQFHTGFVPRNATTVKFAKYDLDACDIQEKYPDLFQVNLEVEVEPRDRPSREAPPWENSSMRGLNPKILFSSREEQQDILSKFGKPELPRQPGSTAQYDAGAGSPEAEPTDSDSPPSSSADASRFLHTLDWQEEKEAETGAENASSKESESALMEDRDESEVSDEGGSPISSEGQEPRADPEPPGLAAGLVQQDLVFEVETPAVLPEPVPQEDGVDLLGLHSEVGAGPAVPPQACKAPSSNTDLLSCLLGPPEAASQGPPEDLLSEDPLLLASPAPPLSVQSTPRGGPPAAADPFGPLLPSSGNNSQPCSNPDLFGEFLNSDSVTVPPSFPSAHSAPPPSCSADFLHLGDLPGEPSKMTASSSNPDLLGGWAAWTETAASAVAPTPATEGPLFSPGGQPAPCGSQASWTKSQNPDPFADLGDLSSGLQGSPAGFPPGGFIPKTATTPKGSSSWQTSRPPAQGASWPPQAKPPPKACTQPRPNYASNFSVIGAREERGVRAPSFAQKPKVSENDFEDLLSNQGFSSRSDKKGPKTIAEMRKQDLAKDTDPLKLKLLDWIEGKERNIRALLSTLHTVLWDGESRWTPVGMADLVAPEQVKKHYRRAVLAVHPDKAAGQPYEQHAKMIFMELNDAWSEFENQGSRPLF
Chain of SRC (P12931 whole entry, looked up): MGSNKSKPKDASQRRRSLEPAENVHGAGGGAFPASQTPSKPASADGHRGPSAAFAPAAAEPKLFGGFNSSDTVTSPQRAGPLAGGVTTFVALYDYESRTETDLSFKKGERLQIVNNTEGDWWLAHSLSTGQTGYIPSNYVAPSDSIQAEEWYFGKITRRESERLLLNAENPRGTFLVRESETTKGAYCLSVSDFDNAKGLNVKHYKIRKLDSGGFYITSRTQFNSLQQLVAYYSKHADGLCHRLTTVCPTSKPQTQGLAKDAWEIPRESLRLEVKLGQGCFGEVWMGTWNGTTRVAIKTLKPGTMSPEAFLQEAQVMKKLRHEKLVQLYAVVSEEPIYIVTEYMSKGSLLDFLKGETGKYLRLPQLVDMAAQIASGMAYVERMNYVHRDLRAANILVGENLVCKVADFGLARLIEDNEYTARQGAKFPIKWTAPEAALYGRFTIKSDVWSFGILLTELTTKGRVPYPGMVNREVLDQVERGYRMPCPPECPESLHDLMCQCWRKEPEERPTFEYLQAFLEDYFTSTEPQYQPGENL

Structure (SMILES): CCN1CCN(Cc2cc(NC(=O)c3ccc(C)c(-c4ccc5nc(NC(=O)C6CC6)cn5c4)c3)cc(C(F)(F)F)c2)CC1 [Compound I-6, 3-(2-(cyclopropanecarboxamido)imidazo[1,2-a]pyridin-6-yl)-N-(3-((4-ethylpiperazin-1-yl)methyl)-5-(trifluoromethyl)phenyl)-4-methylbenzamide]
- remaining binding at 1 µM (TLK1): 97%
- remaining binding at 1 µM (PHKG2): 98%
- remaining binding at 1 µM (HUNK): 96%
- remaining binding at 1 µM [1]: 0.1%
- remaining binding at 1 µM (FLT3 (D835Y)): 27%
- remaining binding at 1 µM (CDK8): 3%
- remaining binding at 1 µM (NEK10): 62%
- remaining binding at 1 µM (PIP5K1A): 100%
- remaining binding at 1 µM (SRC): 0%
- remaining binding at 1 µM (CHEK2): 93%
- remaining binding at 1 µM (ACVRL1): 92%
- remaining binding at 1 µM (MAP3K15): 95%
- remaining binding at 1 µM [2]: 41%
- remaining binding at 1 µM (TGFBR1): 100%
- remaining binding at 1 µM (ZAK): 6.2%
- remaining binding at 1 µM [3]: 0.25%
- remaining binding at 1 µM (KIT-autoinhibited): 85%
- remaining binding at 1 µM (JNK3): 93%
- remaining binding at 1 µM (TESK1): 97%
- remaining binding at 1 µM (WEE1): 100%
- remaining binding at 1 µM (ROCK2): 94%
- remaining binding at 1 µM (STK36): 100%
- remaining binding at 1 µM (SRPK1): 57%
- remaining binding at 1 µM (LOK): 0%
- remaining binding at 1 µM (PIM2): 97%
- remaining binding at 1 µM (GAK): 93%
- remaining binding at 1 µM (KIT(V559D,V654A)): 7.4%
- remaining binding at 1 µM (MUSK): 2.1%
- remaining binding at 1 µM (INSRR): 3.8%
- remaining binding at 1 µM (MARK1): 77%
- remaining binding at 1 µM (DCAMKL3): 96%
- remaining binding at 1 µM (MAP3K4): 81%
- remaining binding at 1 µM (PIK3CA(M1043I)): 73%
- remaining binding at 1 µM (NLK): 100%
- remaining binding at 1 µM (TYR): 47%
- remaining binding at 1 µM (BIKE): 100%
- remaining binding at 1 µM (WNK3): 83%
- percent of control (FLT3 (ITD)): 1.4%
- remaining binding at 1 µM (VPS34): 93%

Structure (SMILES): CCN1CCN(Cc2cc(NC(=O)c3ccc(C)c(-c4ccc5nc(NC(=O)C6CC6)cn5n4)c3)cc(C(F)(F)F)c2)CC1 [Compound I-2, 3-(2-(cyclopropanecarboxamido)imidazo[1,2-b]pyridazin-6-yl)-N-(3-((4-ethylpiperazin-1-yl)methyl)-5-(trifluoromethyl)phenyl)-4-methylbenzamide]
- remaining binding at 1 µM (TLK1): 100%
- remaining binding at 1 µM (PHKG2): 93%
- remaining binding at 1 µM (HUNK): 80%
- remaining binding at 1 µM [1]: 0%
- remaining binding at 1 µM (FLT3 (D835Y)): 23%
- remaining binding at 1 µM (CDK8): 4.8%
- remaining binding at 1 µM (NEK10): 75%
- remaining binding at 1 µM (PIP5K1A): 100%
- remaining binding at 1 µM (SRC): 0%
- remaining binding at 1 µM (CHEK2): 90%
- remaining binding at 1 µM (ACVRL1): 91%
- remaining binding at 1 µM (MAP3K15): 55%
- remaining binding at 1 µM [2]: 54%
- remaining binding at 1 µM (TGFBR1): 94%
- remaining binding at 1 µM (ZAK): 2.3%
- remaining binding at 1 µM [3]: 0.3%
- remaining binding at 1 µM (KIT-autoinhibited): 79%
- remaining binding at 1 µM (JNK3): 85%
- remaining binding at 1 µM (TESK1): 100%
- remaining binding at 1 µM (WEE1): 94%
- remaining binding at 1 µM (ROCK2): 82%
- remaining binding at 1 µM (STK36): 66%
- remaining binding at 1 µM (SRPK1): 85%
- remaining binding at 1 µM (LOK): 0%
- remaining binding at 1 µM (PIM2): 96%
- remaining binding at 1 µM (GAK): 99%
- remaining binding at 1 µM (KIT(V559D,V654A)): 6.1%
- remaining binding at 1 µM (MUSK): 0.6%
- remaining binding at 1 µM (INSRR): 0.55%
- remaining binding at 1 µM (MARK1): 91%
- remaining binding at 1 µM (DCAMKL3): 91%
- remaining binding at 1 µM (MAP3K4): 89%
- remaining binding at 1 µM (PIK3CA(M1043I)): 100%
- remaining binding at 1 µM (NLK): 95%
- remaining binding at 1 µM (TYR): 26%
- remaining binding at 1 µM (BIKE): 96%
- remaining binding at 1 µM (WNK3): 92%
- percent of control (FLT3 (ITD)): 1.6%
- remaining binding at 1 µM (VPS34): 91%
